Source: US5874426A, “Cyclic amine derivatives of substituted quinoxaline 2,3-diones as glutamate receptor antagonists” (Warner-Lambert Company, priority 1995, dated 1999)

Experiments:
AMPA receptors = assay: AMPA receptor binding affinity (Honoré et al.); settings: Table 1
[1] = molecular target: kainate site (non-NMDA receptor); assay: kainate site (non-NMDA receptor) binding affinity (London and Coyle); settings: Table 1
CF-1 strain mice = assay: maximal electroshock assay in CF-1 strain mice, corneal electrodes; format: in vivo; settings: ten mice; IV; 30 seconds; 0.5 min
From the text: The graph is the […] of mice protected versus the time in minutes.

Compound | IC50 (AMPA receptors) [µM] | IC50 KA [1] [µM] | ED50 maximal electroshock dose-response (CF-1 strain mice) [mg/kg]
Cc1c([N+](=O)[O-])cc2[nH]c(=O)c(=O)[nH]c2c1CN1CCC2(CCCCC2)CC1 [5-(3-Azaspiro [5.5]undec-3-ylmethyl)-6-methyl-7-nitro-1,4-dihydroquinoxaline-2,3-dione] | 0.486 | 6.54 | –
Cc1c([N+](=O)[O-])cc2[nH]c(=O)c(=O)[nH]c2c1CN1CCC(C)CC1 [6-Methyl-5-(4-methyl-piperidin-1-ylmethyl)-7-nitro-1,4-dihydroquinoxaline-2,3-dione] | 0.42 | 9.95 | –
1,4,7,8,9,10-hexahydro-7-methyl-6-nitro-pyrido[3,4-f]quinoxaline-2,3-dione [PNQX] | – | – | 0.5
Cc1c([N+](=O)[O-])cc2[nH]c(=O)c(=O)[nH]c2c1CN1CCCCC1C (stereo not drawn) [6-Methyl-5-(2-methyl-piperidin-1-ylmethyl)-7-nitro-1,4-dihydroquinoxaline-2,3-dione] | 0.49 | 8.28 | –
Cc1c([N+](=O)[O-])cc2[nH]c(=O)c(=O)[nH]c2c1CN1CCCCC1 [6-Methyl-7-nitro-5-piperidin-1-ylmethyl-1,4-dihydroquinoxaline-2,3-dione] | 0.29 | 4.11 | –
Cc1c([N+](=O)[O-])cc2[nH]c(=O)c(=O)[nH]c2c1CN1CCN(C)CC1 [6-Methyl-5-(4-methyl-piperazin-1-ylmethyl)-7-nitro-1,4-dihydroquinoxaline-2,3-dione] | 2.47 | 13.2 | –
Cc1c([N+](=O)[O-])cc2[nH]c(=O)c(=O)[nH]c2c1CN1CCOCC1 [6-Methyl-5-morpholin-4-ylmethyl-7-nitro-1,4-dihydroquinoxaline-2,3-dione] | 0.572 | 9.083 | –
Cc1c([N+](=O)[O-])cc2[nH]c(=O)c(=O)[nH]c2c1CN1CCCC1 [6-Methyl-5-pyrrolidin-1-ylmethyl-7-nitro-1,4-dihydroquinoxaline-2,3-dione] | 0.22 | 4.52 | –
Cc1c([N+](=O)[O-])cc2[nH]c(=O)c(=O)[nH]c2c1CN1C(C)CCC1C (stereo not drawn) [5-(2,5-Dimethyl-pyrrolidin-1-ylmethyl)-6-methyl-7-nitro-1,4-dihydroquinoxaline-2,3-dione] | 0.74 | 2.84 | –
Cc1c([N+](=O)[O-])cc2[nH]c(=O)c(=O)[nH]c2c1CN1CCCCCC1 [5-Azepan-1-ylmethyl-6-methyl-7-nitro-1,4-dihydroqinoxaline-2,3-dione] | 0.899 | 3.695 | –
Cc1c([N+](=O)[O-])cc2[nH]c(=O)c(=O)[nH]c2c1CN1CCCC1C (stereo not drawn) [6-Methyl-5-(2-methyl-pyrrolidin-1-ylmethyl)-7-nitro-1,4-dihydroquinoxaline-2,3-dione] | 0.37 | 6.11 | –
